This is an account of results in patent US8895585B2, “Nicotinamide derivative or salt thereof” (FUJIFILM Corporation, priority 2010, dated 2014).

Bounds are passed on as bounds.

The target of test [1] is T1, glutathione S-transferase (GST)-fused full-length human Syk protein (Homo sapiens, UniProt P43405).
T1 construct: (GST)-fused full-length human Syk protein; GST (glutathione S-transferase); purchased Carna Biosciences
Description: Syk enzyme assay. In kind it is biochemical. To be noted: Syk enzyme assay, Test Example 1; read-out: IC50 of Syk-inhibitory activity. In outline:
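IC50 values come from a time-resolved FRET readout (615 and 665 nm) of substrate phosphorylation, measured after an EDTA stop and 1 h antibody binding. The kinase reaction ran 40 min at room temperature with 27 μM ATP and 0.4 μM biotin-peptide, following a 15 min compound preincubation with baculovirus-made GST-full-length human Syk.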

For a further test, the system named is THP-1 cells. Description: TNFα generation assay. In kind it is cell-based, human. The following applies: Homo sapiens, THP-1, THP-1 cells; Table 22; read-out: IC50 in TNFα generation assay. An outline of the steps:
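Secreted TNFα in supernatant quantified by ELISA or AlphaLISA after 7 h culture on human IgG-coated wells (10 μg/ml coating). Cells were IFN-γ-differentiated THP-1 (10 ng/ml, 2 days), exposed to compound for 30 min at room temperature before plating.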

In the case of `COCCOc1cc(Nc2nc(N[C@H](CC3CC3)[C@H](C)N)c(F)cc2C(N)=O)ccn1` [Example 006-394, 6-(((2R,3S)-3-amino-1-cyclopropylbutan-2-yl)amino)-5-fluoro-2-((2-(2-methoxyethoxy)pyridin-4-yl)amino)nicotinamide], the IC50 in test [1] was below 10 nM; in the test on THP-1 cells it was 65 to 130 nM.
With `CCC[C@@H](Nc1nc(Nc2cncc(C3CC3)c2)c(C(N)=O)cc1F)[C@@H](N)CC` [Example 006-402, 6-(((3S,4R)-3-aminoheptan-4-yl)amino)-2-((5-cyclopropylpyridin-3-yl)amino)-5-fluoronicotinamide], the figures for the IC50 (in test [1]; in the test on THP-1 cells) were below 10 nM and 130 to 200 nM, respectively.
Regarding `COc1nn(C)c2ccc(Nc3nc(N[C@H](CC4CC4)[C@H](C)N)c(F)cc3C(N)=O)cc12` [Example 006-586, 6-(((2R,3S)-3-amino-1-cyclopropylbutan-2-yl)amino)-5-fluoro-2-((3-methoxy-1-methyl-1H-indazol-5-yl)amino)nicotinamide], the IC50 in test [1] is below 10 nM; in the test with THP-1 cells, 65 to 130 nM.
As for `NC(=O)c1cc(F)c(N[C@@H]2CCCC[C@@H]2N)nc1Nc1cnc(N2CCOCC2)c(Cl)c1` [Example 006-466, 6-(((1R,2S)-2-aminocyclohexyl)amino)-2-((5-chloro-6-morpholinopyridin-3-yl)amino)-5-fluoronicotinamide], the IC50 in test [1] fell in the range of 10 to 50 nM; in the test with THP-1 cells, 65 to 130 nM.
With `CCn1ncc2cc(Nc3nc(NC4CCCCC4N)c(F)cc3C(N)=O)ccc21` (stereo not drawn) [Example 002-125], the IC50 in test [1] was below 10 nM; with THP-1 cells it was 65 to 130 nM.
On to `COc1cc(Nc2nc(N[C@H](CC(C)C)[C@H](C)N)c(F)cc2C(N)=O)cc(OC)n1` [Example 006-409, 6-(((2S,3R)-2-amino-5-methylhexan-3-yl)amino)-2-((2,6-dimethoxypyridin-4-yl)amino)-5-fluoronicotinamide], for which the IC50 is below 10 nM in test [1] and 130 to 200 nM with THP-1 cells.
Consider `CC[C@@H](Nc1nc(Nc2ccc3nc(OCCOC)ccc3c2)c(C(N)=O)cc1F)[C@H](C)N` [Example 006-271, 6-(((2S,3R)-2-aminopentan-3-yl)amino)-5-fluoro-2-((2-(2-methoxyethoxy)quinolin-6-yl)amino)nicotinamide], for which the results for the IC50 (in test [1]; in the test on THP-1 cells) were below 10 nM and below 65 nM, respectively.
For the compound `CCC[C@@H](Nc1nc(Nc2ccc3c(cnn3CCF)c2)c(C(N)=O)cc1F)[C@H](C)N` [Example 006-417, 6-(((2S,3R)-2-aminohexan-3-yl)amino)-5-fluoro-2-((1-(2-fluoroethyl)-1H-indazol-5-yl)amino)nicotinamide], the IC50 in test [1] is below 10 nM; with THP-1 cells, 65 to 130 nM.
For `CC(C)C[C@H](CN)Nc1nc(Nc2cccc3c2cnn3C)c(C(N)=O)cc1F` [Example 006-227, (R)-6-((1-amino-4-methylpentan-2-yl)amino)-5-fluoro-2-((1-methyl-1H-indazol-4-yl)amino)nicotinamide], the IC50 in test [1] was below 10 nM; in the test with THP-1 cells, 130 to 200 nM.
Regarding `CC[C@@H](Nc1nc(Nc2ccc3ncccc3c2)c(C(N)=O)cc1F)C(N)=O` [Example 012-031], the values for the IC50 (in test [1]; in the test with THP-1 cells) were 10 to 50 nM and 65 to 130 nM, respectively.
As to `C[C@@H](Nc1nc(Nc2ccc3ncccc3c2)c(C(N)=O)cc1F)C(N)=O` [Example 012-036, (R)-6-((1-amino-1-oxopropan-2-yl)amino)-5-fluoro-2-((quinolin-6-yl)amino)nicotinamide], the IC50 in test [1] was 10 to 50 nM; with THP-1 cells it was 65 to 130 nM.
Regarding `CCC[C@@H](Nc1nc(Nc2ccc3cnn(C)c3c2)c(C(N)=O)cc1F)[C@H](C)N` [Example 006-359, 6-(((2S,3R)-2-aminohexan-3-yl)amino)-5-fluoro-2-((1-methyl-1H-indazol-6-yl)amino)nicotinamide], the values for the IC50 (in test [1]; with THP-1 cells) were below 10 nM and below 65 nM, respectively.
In the case of `CCOc1ncc(Nc2nc(N[C@@H]3CCCC[C@@H]3N)c(F)cc2C(N)=O)cc1-n1nccn1` [Example 006-495, 6-(((1R,2S)-2-aminocyclohexyl)amino)-2-((6-ethoxy-5-(2H-1,2,3-triazol-2-yl)pyridin-3-yl)amino)-5-fluoronicotinamide], the IC50 is below 10 nM in test [1] and 130 to 200 nM in the test on THP-1 cells.
For the compound `COc1ncc(Nc2nc(N[C@@H]3CCCC[C@@H]3N)c(F)cc2C(N)=O)cc1-n1ccnn1` [Example 006-493, 6-(((1R,2S)-2-aminocyclohexyl)amino)-5-fluoro-2-((6-methoxy-5-(1H-1,2,3-triazol-1-yl)pyridin-3-yl)amino)nicotinamide], the IC50 in test [1] is 10 to 50 nM; in the test with THP-1 cells, 130 to 200 nM.
Take `CCC[C@@H](Nc1nc(Nc2cnc(C)c(-n3nccn3)c2)c(C(N)=O)cc1F)[C@@H](N)CC` [Example 006-403, 6-(((3S,4R)-3-aminoheptan-4-yl)amino)-5-fluoro-2-((6-methyl-5-(2H-1,2,3-triazol-2-yl)pyridin-3-yl)amino)nicotinamide]: the values for the IC50 (in test [1]; in the test on THP-1 cells) were 10 to 50 nM and 130 to 200 nM, respectively.
In the case of `NC(=O)c1cc(F)c(N[C@@H]2CCCC[C@@H]2N)nc1Nc1cncc2ccccc12` [Example 37-2, 6-((1R,2S)-2-aminocyclohexylamino)-5-fluoro-2-((isoquinolin-4-yl)amino)nicotinamide], the IC50 in test [1] is below 10 nM; in the test with THP-1 cells, below 65 nM.
As to `COc1cc(Nc2nc(N[C@@H](CN)CC(C)C)c(F)cc2C(N)=O)cc(OC)n1` [Example 006-156, (R)-6-((1-amino-4-methylpentan-2-yl)amino)-2-((2,6-dimethoxypyridin-4-yl)amino)-5-fluoronicotinamide], the IC50 is below 10 nM in test [1] and 130 to 200 nM with THP-1 cells.
As to `CCC[C@@H](Nc1nc(Nc2ccc3nc(C)c(C)nc3c2)c(C(N)=O)cc1F)[C@H](C)N` [Example 006-306, 6-(((2S,3R)-2-aminohexan-3-yl)amino)-2-((2,3-dimethylquinoxalin-6-yl)amino)-5-fluoronicotinamide], the IC50 in test [1] is below 10 nM; in the test with THP-1 cells it was 65 to 130 nM.
In the case of `NC(=O)c1cc(F)c(N[C@@H](C(N)=O)c2ccccc2)nc1Nc1cnc2ccccc2c1` [Example 012-013], the figures for the IC50 (in test [1]; in the test with THP-1 cells) were 10 to 50 nM and 130 to 200 nM, respectively.
For the compound `Cc1nc2ccc(Nc3nc(NC4CCCCC4N)c(F)cc3C(N)=O)cc2nc1C` (stereo not drawn) [Example 002-123], the values for the IC50 (in test [1]; in the test on THP-1 cells) were below 10 nM and 130 to 200 nM, respectively.
On the same counts, the results for `COCCOc1nccc2cc(Nc3nc(N[C@@H]4CCCC[C@@H]4N)c(F)cc3C(N)=O)ccc12` (relative stereo) [Example 004-168, 6-(cis-2-aminocyclohexylamino)-5-fluoro-2-((1-(2-methoxyethoxy)isoquinolin-6-yl)amino)-nicotinamide] are below 10 nM and 130 to 200 nM.
For the compound `NC(=O)c1cc(F)c(N[C@@H]2CCCC[C@@H]2N)nc1Nc1cncc(-c2cccs2)c1` (relative stereo) [Example 004-054], the IC50 in test [1] is below 10 nM; in the test with THP-1 cells, 65 to 130 nM.
For `NC(=O)c1cc(F)c(N[C@@H]2CCCC[C@@H]2N)nc1Nc1cnc2c(c1)CCC2` (relative stereo) [Example 004-162, 6-(cis-2-aminocyclohexylamino)-2-((6,7-dihydro-5H-cyclopenta[b]pyridin-3-yl)amino)-5-fluoronicotinamide], in that order: below 10 nM and 130 to 200 nM.
Consider `COCCn1ncc2c(Nc3nc(NC4CCCCC4N)c(F)cc3C(N)=O)cccc21` (stereo not drawn) [Example 002-030], for which the IC50 was below 10 nM in test [1] and 130 to 200 nM in the test with THP-1 cells.
Take `CC(C)C[C@H](CN)Nc1nc(Nc2cccc3ncccc23)c(C(N)=O)cc1F` [Example 006-229, (R)-6-((1-amino-4-methylpentan-2-yl)amino)-5-fluoro-2-((quinolin-5-yl)amino)nicotinamide]: the IC50 in test [1] is below 10 nM; in the test on THP-1 cells, 65 to 130 nM.
For the compound `Cc1cccc(Nc2nc(NC3CCCCC3N)c(Cl)cc2C(N)=O)c1` (stereo not drawn) [Example 035-005], the IC50 in test [1] is below 10 nM; with THP-1 cells, 130 to 200 nM.
As to `COc1ccc(F)c(-c2cncc(Nc3nc(N[C@@H]4CCCC[C@@H]4N)c(F)cc3C(N)=O)c2)c1` (relative stereo) [Example 004-199, 6-(cis-2-aminocyclohexylamino)-5-fluoro-2-((5-(2-fluoro-5-methoxyphenyl)pyridin-3-yl)amino)nicotinamide], the figures for the IC50 (in test [1]; in the test on THP-1 cells) were below 10 nM and 130 to 200 nM, respectively.
For `CCc1nn(C)c2ccc(Nc3nc(N[C@@H]4CCCC[C@@H]4N)c(F)cc3C(N)=O)cc12` [Example 006-451, 6-(((1R,2S)-2-aminocyclohexyl)amino)-2-((3-ethyl-1-methyl-1H-indazol-5-yl)amino)-5-fluoronicotinamide], in that order: below 10 nM and below 65 nM.
For `NC(=O)c1cc(F)c(N[C@@H]2CCCC[C@@H]2N)nc1Nc1cncc(NC(=O)c2ccccn2)c1` (relative stereo) [Example 027-020, N-(5-(6-(cis-2-aminocyclohexylamino)-3-carbamoyl-5-fluoropyridin-2-yl)aminopyridin-3-yl)picolinamide], the figures for the IC50 (in test [1]; in the test with THP-1 cells) were 10 to 50 nM and 130 to 200 nM, respectively.
For `COc1ccc(-c2cncc(Nc3nc(N[C@@H]4CCCC[C@@H]4N)c(F)cc3C(N)=O)c2)c(F)c1` (relative stereo) [Example 004-198, 6-(cis-2-aminocyclohexylamino)-5-fluoro-2-((5-(2-fluoro-4-methoxyphenyl)pyridin-3-yl)amino)nicotinamide], in that order: below 10 nM and 65 to 130 nM.
